Assay results published in article PMC11696576, “Next generation thiazolyl ketone inhibitors of cytosolic phospholipase A2 α for targeted cancer therapy” (Nature Communications, 2025).
Several values for one entry are separate records, joined by “and”; a condition that tells them apart may be missing. Identical values can stand only once.

system: SW982 synoviocytes; experiment: cellular arachidonic acid (AA) release assay, IL-1β stimulated; format: cell-based, human; settings: 0.2 µM, individual biological replicate
Excerpt: To test the inhibitory activity of the compounds in cells, we measured their effect on the release of AA from synoviocytes stimulated with IL-1β (Table 2). […] Combined with favorable selectivity and stability it was thus chosen for further evaluation. We looked specifically at how it modulated eicosanoid levels in response to stimulation both in whole blood and in isolated peripheral blood mononuclear cells (PBMCs) and checked for off-target effects on AA metabolism in whole blood by also measuring the effect of GK420 on eicosanoid release in the presence of exogenous free AA.
The human synovial sarcoma cell line SW982 (ATCC, London, UK) was used to measure AA release. The cells were maintained in Dulbecco’s Modified Eagle Medium (DMEM) supplemented with 10% FBS, 0.1 mg/mL gentamicin, and 0.3 mg/mL L-glutamine at 37 °C with 10% CO2, and experiments were performed at 3 days post-confluence. To measure AA release, the cells were labeled overnight with ^3H-AA (0.4 μCi/mL) in serum-free DMEM and then washed twice with PBS containing fBSA (2 mg/mL) to remove unincorporated radioactivity. The inhibitors, or DMSO vehicle control, were subsequently added to the cells for 1 hour prior to stimulation with 10 ng/mL IL-1β for 4 h. Supernatants were collected and centrifuged at 300 × g for 5 min to clear them of detached cells and adherent cells were dissolved in 1 N NaOH. The ^3H-AA was assessed by liquid scintillation counting (LS 6500 Multi-Purpose Scintillation Counter, Beckman Coulter, Inc., USA) and the results are given as the inhibition of released ^3H-AA in the supernatants relative to total ^3H-AA incorporated into the cells, as described. EC50 values were calculated by fitting the % inhibition data to a three-parameter dose-response curve in GraphPad prism v10.4.0. Experiments were performed in technical triplicates and repeated at least three times.

| Compound | % inhibition of stimulated AA release |
| --- | --- |
| CCCCCCSc1ccc(OCC(=O)c2nc(C(=O)OC)cs2)cc1 [GK427] | 24.46% and 29.82% and 29.25% |
| CCCCCCCCc1ccc(OCC(=O)c2nc(C(=O)OC)cs2)cc1 [GK470] | 11.2% and 24.55% and 57.46% and 50.18% |

same assay, conditions: 1 µM, individual biological replicate

| Compound | % inhibition of stimulated AA release |
| --- | --- |
| CCCCCCSc1ccc(OCC(=O)c2nc(C(=O)OC)cs2)cc1 [GK427] | 49.86% and 62.69% |
| CCCCCCCCc1ccc(OCC(=O)c2nc(C(=O)OC)cs2)cc1 [GK470] | 71.51% and 64.93% and 67.46% |

same assay, conditions: 5 µM, individual biological replicate

| Compound | % inhibition of stimulated AA release |
| --- | --- |
| CCCCCCSc1ccc(OCC(=O)c2nc(C(=O)OC)cs2)cc1 [GK427] | 90.15% and 92.25% and 90.43% |
| CCCCCCCCc1ccc(OCC(=O)c2nc(C(=O)OC)cs2)cc1 [GK470] | 105% and 107.21% and 94.17% |

same assay, conditions: Homo sapiens, SW982, 0.2 µM, individual biological replicate

| Compound | inhibition at 0.2 µM |
| --- | --- |
| CCCCCCSc1ccc(OCC(=O)c2nc(C(=O)OC)cs2)cc1 [GK427] | 26.4% |

same assay, conditions: Homo sapiens, SW982, 1 µM, individual biological replicate; read-out: % inhibition of stimulated AA release

| Compound | inhibition at 1 µM |
| --- | --- |
| CCCCCCSc1ccc(OCC(=O)c2nc(C(=O)OC)cs2)cc1 [GK427] | 55.8% |
| CCCCCCCCc1ccc(OCC(=O)c2nc(C(=O)OC)cs2)cc1 [GK470] | 62.7% |

same assay, conditions: Homo sapiens, SW982, 5 µM, individual biological replicate

| Compound | inhibition at 5 µM |
| --- | --- |
| CCCCCCSc1ccc(OCC(=O)c2nc(C(=O)OC)cs2)cc1 [GK427] | 84% |
| CCCCCCCCc1ccc(OCC(=O)c2nc(C(=O)OC)cs2)cc1 [GK470] | 110% |

same assay, conditions: Homo sapiens, SW982, 4 h, 1 µM inhibitor, IL-1β 4 h, mean ± stdev; read-out: AA release % Inhib

| Compound | inhibition at 1 µM |
| --- | --- |
| CCCCCCSc1ccc(OCC(=O)c2nc(C(=O)OC)cs2)cc1 [GK427] | 56 ± 5% |
| CCCCCCCCc1ccc(OCC(=O)c2nc(C(=O)OC)cs2)cc1 [GK470] | 67 ± 4% |

same assay, conditions: Homo sapiens, SW982; IL-1β 4 h; 0.2, 1 or 5 µM inhibitor; read-out: AA release EC50 µM (95% CI)

| EC50 | Compound |
| --- | --- |
| 0.67 µM | CCCCCCSc1ccc(OCC(=O)c2nc(C(=O)OC)cs2)cc1 [GK427] |
| 0.38 µM | CCCCCCCCc1ccc(OCC(=O)c2nc(C(=O)OC)cs2)cc1 [GK470] |

same assay, conditions: Homo sapiens, SW982; [Agonist] vs. Response (three parameters); concentration in µM; read-out: logEC50 best-fit value, AA release (converted)

| IC50 | Compound |
| --- | --- |
| 0.671 µM | CCCCCCSc1ccc(OCC(=O)c2nc(C(=O)OC)cs2)cc1 [GK427] |
| 0.385 µM | CCCCCCCCc1ccc(OCC(=O)c2nc(C(=O)OC)cs2)cc1 [GK470] |

same assay, conditions: Homo sapiens, SW982; [Agonist] vs. Response (three parameters); read-out: EC50 best-fit value, AA release

| EC50 | Compound |
| --- | --- |
| 0.671 µM | CCCCCCSc1ccc(OCC(=O)c2nc(C(=O)OC)cs2)cc1 [GK427] |
| 0.385 µM | CCCCCCCCc1ccc(OCC(=O)c2nc(C(=O)OC)cs2)cc1 [GK470] |

system: not listed separately; experiment: stability in human plasma (LC-MS/MS); format: in vitro ADME; settings: % of the compound remaining after 4 h
Protocol: The stability of the analogs in human plasma was studied over approximately 24 h by LC-MS/MS and the results at 4 h and the final timepoint (20–25 h) are included in Table 1.
The metabolic stability of the compounds was determined through in vitro stability assays in human plasma. Solutions of compounds in DMSO (20 mM) were diluted to 5 μg/mL in 50% methanol for infusion into the MS/MS system and spiking of calibration standards and control samples. For the MS detection, positive ionization in ESI mode was used. Good sensitivity, retention and peak shaped were achieved using a gradient with 5 mM ammonium carbamate in water and ammonium carbamate in 90% acetonitrile on a reversed phase column (ACE3AQ). Calibration standards were spiked in a calibration range of 0.5–100 ng/ml. Control samples were spiked at, low, medium, and high concentration levels. The spiked plasma samples were prepared by protein precipitation using acetonitrile containing appropriate internal standard (IS). […] Samples were prepared for analysis by taking 50 μL of plasma sample and adding 100 μL of IS working solution in acetonitrile followed by vortexing at 2500 rpm (Multi-tube vortexer DVX-2500, Henry Troemner LLC, USA) for 2 min. The samples were centrifuged at 5300 rpm (Heraeus Megafuge 1.0 Heraeus, Germany) for 3 min and the supernatant transferred to the autosampler. Recovery was determined by comparing the prepared matrix samples (protein precipitation) with a direct sample (analytes spikes in 67% acetonitrile = injection solution) such that the recovery of the sample preparation and the matrix effects were determined together. Two or three samples were each measured in technical triplicates to give the final % recovery.

| Stability in human plasma 4 h | Compound |
| --- | --- |
| 61.3% | CCCCCCSc1ccc(OCC(=O)c2nc(C(=O)OC)cs2)cc1 [GK427] |
| 60.6% | CCCCCCCCc1ccc(OCC(=O)c2nc(C(=O)OC)cs2)cc1 [GK470] |

same assay, conditions: % of the compound remaining after 20 h

| Stability in human plasma 20+ h | Compound |
| --- | --- |
| 8.05% | CCCCCCSc1ccc(OCC(=O)c2nc(C(=O)OC)cs2)cc1 [GK427] |

same assay, conditions: individual sample, human plasma

| plasma stability 4h (%) | plasma stability 20h (%) | plasma stability 25h (%) | Compound |
| --- | --- | --- | --- |
| 59% and 63.5% | 0% and 16.1% | – | CCCCCCSc1ccc(OCC(=O)c2nc(C(=O)OC)cs2)cc1 [GK427] |
| 58.2% and 63% and 60.5% | – | 10.5% and 10.6% | CCCCCCCCc1ccc(OCC(=O)c2nc(C(=O)OC)cs2)cc1 [GK470] |

molecular target: T1, recombinant human cPLA2α (Homo sapiens, UniProt P47712); experiment: radioactivity-based mixed micelle assay, cPLA2α; format: biochemical; settings: 0.091 mole fraction; read-out: cPLA2α % Inhib
T1 sequence (P47712 1-749): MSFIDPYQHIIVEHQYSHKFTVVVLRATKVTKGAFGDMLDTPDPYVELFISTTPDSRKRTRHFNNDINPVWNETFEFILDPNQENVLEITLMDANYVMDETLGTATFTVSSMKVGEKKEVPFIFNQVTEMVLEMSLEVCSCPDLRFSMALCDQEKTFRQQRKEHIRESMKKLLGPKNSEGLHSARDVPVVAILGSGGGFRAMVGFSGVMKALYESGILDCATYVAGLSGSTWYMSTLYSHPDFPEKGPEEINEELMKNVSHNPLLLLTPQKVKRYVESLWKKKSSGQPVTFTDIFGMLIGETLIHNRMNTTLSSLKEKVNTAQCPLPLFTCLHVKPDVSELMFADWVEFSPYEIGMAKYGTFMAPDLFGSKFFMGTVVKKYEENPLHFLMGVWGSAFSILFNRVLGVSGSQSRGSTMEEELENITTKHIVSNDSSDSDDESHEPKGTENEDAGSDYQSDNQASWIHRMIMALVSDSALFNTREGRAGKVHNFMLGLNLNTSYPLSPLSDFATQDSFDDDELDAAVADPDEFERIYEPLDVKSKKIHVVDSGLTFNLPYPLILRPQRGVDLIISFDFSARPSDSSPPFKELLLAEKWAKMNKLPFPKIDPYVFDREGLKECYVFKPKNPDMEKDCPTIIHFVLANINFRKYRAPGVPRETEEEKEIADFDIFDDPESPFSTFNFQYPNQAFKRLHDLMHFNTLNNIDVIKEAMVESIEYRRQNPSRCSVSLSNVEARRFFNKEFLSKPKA
Protocol: All synthesized thiazolyl ketones were tested for their in vitro inhibitory activity on recombinant human cPLA2α and selectivity over human calcium-independent GVIA iPLA2 and secreted GV sPLA2 using our previously described group-specific radioactivity-based mixed micelle assays. The inhibition results are presented either as per cent inhibition or as XI(50) values in Table 1. […] The XI(50) is defined as the mole fraction of the inhibitor in the total substrate interface required to inhibit the enzyme activity by 50%. For comparison purposes, previously published data for the inhibitor GK470[19] are included. […] Inhibitors were initially screened at 0.091 mol fraction (5 μL of 5 mM inhibitor in DMSO) in substrate (495 μL) in technical triplicates. […] The XI(50) value and stdev values reported are for the entire curve. This analysis was performed in GraphPad Prism v6.

| inhibition at 0.091 mole fraction | Compound |
| --- | --- |
| 98% | CCCCCCSc1ccc(OCC(=O)c2nc(C(=O)OC)cs2)cc1 [GK427] |

same assay, conditions: Log [inhibitor] (mole%) -4.30; replicates

| cPLA2α inhibition, Xi50 dose-response | Compound |
| --- | --- |
| 14.10 | CCCCCCSc1ccc(OCC(=O)c2nc(C(=O)OC)cs2)cc1 [GK427] |

same assay, conditions: XI(50) ± stdev; mole fraction of inhibitor in total substrate interface for 50% inhibition

| Compound | cPLA2α XI(50) |
| --- | --- |
| CCCCCCSc1ccc(OCC(=O)c2nc(C(=O)OC)cs2)cc1 [GK427] | 0.0010 mole fraction and 0.0010 ± 0.0001 mole fraction |

same assay, conditions: cPLA2α XI(50) relative to GK470

| times more potent than GK470 | Compound |
| --- | --- |
| 7–11 | CCCCCCSc1ccc(OCC(=O)c2nc(C(=O)OC)cs2)cc1 [GK427] |

same assay, conditions: individual technical replicate; read-out: cPLA2 % inhibition at 0.091 mole fraction

| inhibition at 0.091 mole fraction | Compound |
| --- | --- |
| 98.4% | CCCCCCSc1ccc(OCC(=O)c2nc(C(=O)OC)cs2)cc1 [GK427] |
